The source of these data is US4843062A, “N-acyl-N-napthoylglycines as aldose reductase inhibitors” (American Home Products Corporation, priority 1987, dated 1989).

For test [1], the target named is T1, aldose reductase (Bos taurus, UniProt P16116).
T1 construct: preparation of the enzyme from bovine lens; from tissue; host or cells: bovine lens
Nature of the test: Aldose reductase inhibition in vitro (enzyme preparation from bovine lens, modified Hayman and Kinoshita procedure). The class given is biochemical. To be noted: for inhibition at 10 µM: 10^-5 M; for inhibition at 10 µM / inhibition at 1 µM: read-out: % Inhibition IN VITRO; for inhibition at 0.1 µM: 10^-7 M. The method, then:
(§1) Only two minor reagent changes were made: (a) The rinsing mixture was an aqueous 5% (w/v) trichloroacetic acid solution and (b) the stock solution was prepared by dissolving 25 mg of dulcitol in 100 mL of an aqueous trichloroacetic acid solution. [N.B.: For each experiment the average value found in the tissue from rats fed the glucose diet was subtracted from the individual values found in the corresponding tissue in galactose-fed rats to obtain the amount of polyol accumulated.] […] In the present case the procedure of Hayman and Kinoshita was modified in that the final chromatography step was omitted in the preparation of the enzyme from bovine lens.

The subject of test [2] is sciatic nerve (galactitol accumulation). The test can be described thus: Galactitol (dulcitol) accumulation in sciatic nerve of galactosemic rats. In kind it is in vivo, rat (male, Sprague-Dawley). To be noted: four days.
From the text: (§2) Such experiments are exemplified hereinbelow after the listing of the following general comments pertaining to these experiments.
(§3) (a) Four or more groups of six male rats, 50-70 g, Sprague-Dawley strain, were used. The first group, the control group, was fed a mixture of laboratory chow (rodent Laboratory Chow, Purina) and glucose at 20% (w/w %) concentration. […] The test compound was either admixed to the diet or administered by gavage. In experiments involving compound administration in the diet, the average dose administered was calculated from the actual food intake of the animals in each group. The concentration of galactose in the diet of the treated groups was the same as that for the untreated galactosemic group.
(§4) (b) After four days, the animals were killed by decapitation. The eyeballs were removed and punctured with a razor blade; the freed lenses were rolled gently on filter paper and weighed. The sciatic nerves were dissected as completely as possible and weighed. Both tissues when frozen can be kept up to two weeks before being analyzed for galactitol.
as §1, with “(c) The polyol determination was performed by a modification of the procedure of M. Kraml and L. Cosyns, Clin. Biochem., 2,373 (1969). Only” for “Only”
(§5) The figures under L, N, and D represent the percentage decrease of galactitol accumulation in the tissues of the lens, sciatic nerve, and diaphragm, respectively, for treated rats as compared to untreated rats.

In test [3] the test system is rats fed galactose. The test can be described thus: Galactosemic rat experiments. In kind it is in vivo, rat (male, Sprague-Dawley). The text has this:
(§6) The aldose reductase inhibiting property of the compounds of this invention and the utilization of the compounds in preventing, diminishing and alleviating diabetic complications are demonstrable in experiments using galactosemic rats, see Dvornik et al, Science, 182, 1146 (1973). Such experiments are exemplified hereinbelow after the listing of the following general comments pertaining to these experiments.
(§7) (a) Four or more groups of six male rats, 50-70 g, Sprague-Dawley strain, were used. The first group, the control group, was fed a mixture of laboratory chow (rodent Laboratory Chow, Purina) and glucose at 20% (w/w %) concentration. The untreated galactosemic group and the drug-treated groups were fed a similar diet in which galactose is substituted for glucose. The test compound was either admixed to the diet or administered by gavage. In experiments involving compound administration in the diet, the average dose administered was calculated from the actual food intake of the animals in each group. The concentration of galactose in the diet of the treated groups was the same as that for the untreated galactosemic group.
(b) After four days, the animals were killed by decapitation. […] Both tissues when frozen can be kept up to two weeks before being analyzed for galactitol. […]

The test system of test [4] is lens (galactitol accumulation). Nature of the test: Galactitol (dulcitol) accumulation in lens of galactosemic rats. The class given is in vivo, rat (male, Sprague-Dawley). To be noted: four days.
From the text: as §6, §7, §4
(c) The polyol determination was performed by a modification of the procedure of M. Kraml and L. Cosyns, Clin. Biochem., 2,373 (1969). Only two minor reagent changes were made: (a) The rinsing mixture was an aqueous 5% (w/v) trichloroacetic acid solution and (b) the stock solution was prepared by dissolving 25 mg of dulcitol in 100 mL of an aqueous trichloroacetic acid solution. [N.B.: For each experiment the average value found in the tissue from rats fed the glucose diet was subtracted from the individual values found in the corresponding tissue in galactose-fed rats to obtain the amount of polyol accumulated.] The aldose reductase inhibiting effects of the compounds of formula (I) were also tested by employing an in vitro testing procedure similar to that described by S. Hayman and J. H. Kinoshita, J. Biol. Chem., 240,877 (1965). In the present case the procedure of Hayman and Kinoshita was modified in that the final chromatography step was omitted in the preparation of the enzyme from bovine lens.
as §5

The test system of test [5] is diaphragm (galactitol accumulation). The test can be described thus: Galactitol (dulcitol) accumulation in diaphragm of galactosemic rats. In kind it is in vivo, rat (male, Sprague-Dawley). To be noted: four days.
From the text: as §2, §3
as §1, with “(c) The polyol determination was performed by a modification of the procedure of M. Kraml and L. Cosyns, Clin. Biochem., 2,373 (1969). Only” for “Only”
as §5

The structures appear in SMILES notation. Like-named read-outs stand apart in the source and are kept apart here.

On to `CCOC(=O)N(CC(=O)O)C(=O)c1cccc2c(C(F)(F)F)c(OC)ccc12` [Example 1, N-[[6-Methoxy-5-(trifluoromethyl)-1-naphthalenyl]carbonyl]-N-[(ethoxy)carbonyl]glycine], for which, in test [1], the inhibition at 10 µM turned out to be 97%, 0.1 µM produced 47% inhibition and the inhibition at 1 µM came out at 94%. Moreover, the “% Lowering dulcitol accumulation IN VIVO (%)N” value in test [2] (57 mg/kg) worked out at 56%. Moreover, the “% Lowering dulcitol accumulation IN VIVO (%)N” value in test [2] (97 mg/kg) was determined as 90%. Also, the “results compared with tolrestat” value in test [3] (57 mg/kg/day versus tolrestat at 9 mg/kg/day) is on record as “comparable results”.
Turning to `COC(=O)N(CC(=O)O)C(=O)c1cccc2c(C(F)(F)F)c(OC)ccc12` [Example 2, N-[[6-Methoxy-5-(trifluoromethyl)-1-naphthalenyl]carbonyl]-N-[(methoxy)carbonyl]glycine], in test [1], the inhibition at 10 µM was 98% and the inhibition at 0.1 µM is 82%. For the same compound, in test [1] (10^-6 M), the inhibition at 1 µM stood at 97%. In addition, the “% Lowering dulcitol accumulation IN VIVO (%)L” value in test [4] (48 mg/kg) is on record as “N.S”. Moreover, the “% Lowering dulcitol accumulation IN VIVO (%)N” value in test [2] (48 mg/kg) is listed as 70%. The “results compared with tolrestat” value in test [3] (48 mg/kg/day versus tolrestat at 9 mg/kg/day) is reported as “comparable results”.
As for `COc1ccc2c(C(=O)N(CC(=O)O)C(=O)OCC(C)(C)C)cccc2c1C(F)(F)F` [Example 5], in test [1], the inhibition at 10 µM amounted to 90% and the inhibition at 0.1 µM was determined as 18%. In addition, in test [1] (10^-6 M), the inhibition at 1 µM was found to be 64%. Besides, in test [4] (105 mg/kg), the “% Lowering dulcitol accumulation IN VIVO (%)L” value is “N.S”. In addition, in test [2] (105 mg/kg), the “% Lowering dulcitol accumulation IN VIVO (%)N” value is on record as “N.S”. Moreover, the “% Lowering dulcitol accumulation IN VIVO (%)D” value in test [5] (105 mg/kg) was “N.S”.
As for `COc1ccc2c(C(=O)N(CC(=O)O)C(=O)OCc3ccc(Cl)c([N+](=O)[O-])c3)cccc2c1C(F)(F)F` [Example 7], in test [1], the inhibition at 10 µM was 95% and testing at 0.1 µM gave an inhibition of 49%. Further, the inhibition at 1 µM in test [1] (10^-6 M) amounted to 89%. Further, the “% Lowering dulcitol accumulation IN VIVO (%)L” value in test [4] (107 mg/kg) is on record as “N.S”. Besides, the “% Lowering dulcitol accumulation IN VIVO (%)N” value in test [2] (107 mg/kg) is on record as “N.S”. In addition, the “% Lowering dulcitol accumulation IN VIVO (%)D” value in test [5] (107 mg/kg) is given as “N.S”.
Regarding `COc1ccc2c(C(=O)N(CC(=O)O)C(=O)c3ccccc3)cccc2c1C(F)(F)F` [Example 10, N-Benzoyl-N-[[6-methoxy-5-(trifluoromethyl)-1-naphthalenyl]carbonyl]glycine], in test [1], the inhibition at 10 µM turned out to be 90% and the inhibition at 0.1 µM was 15%. The inhibition at 1 µM in test [1] (10^-6 M) came to 62%. Also, the “% Lowering dulcitol accumulation IN VIVO (%)L” value in test [4] (50 mg/kg) was “N.S”. In test [2] (50 mg/kg), the “% Lowering dulcitol accumulation IN VIVO (%)N” value is reported as “N.S”. The “% Lowering dulcitol accumulation IN VIVO (%)D” value in test [5] (50 mg/kg) is on record as “N.S”.
As for `CC(=O)N(CC(=O)O)C(=O)c1cccc2c(Br)cccc12` [Example 15], in test [1], the inhibition at 10 µM worked out at 82% and testing at 0.1 µM gave an inhibition of 7%. Also, the inhibition at 1 µM in test [1] (10^-6 M) was found to be 41%. For the same compound, the “% Lowering dulcitol accumulation IN VIVO (%)L” value in test [4] (112 mg/kg) was “N.S”. Besides, the “% Lowering dulcitol accumulation IN VIVO (%)N” value in test [2] (112 mg/kg) is listed as “N.S”. Also, the “% Lowering dulcitol accumulation IN VIVO (%)D” value in test [5] (112 mg/kg) is “N.S”.
`O=C(O)CN(C(=O)c1ccccc1)C(=O)c1cccc2c(Br)cccc12` [Example 16]: in test [1], the inhibition at 10 µM was determined as 83% and testing at 0.1 µM gave an inhibition of 10%. Further, the inhibition at 1 µM in test [1] (10^-6 M) is 58%. For the same compound, in test [4] (111 mg/kg), the “% Lowering dulcitol accumulation IN VIVO (%)L” value was “N.S”. Moreover, the “% Lowering dulcitol accumulation IN VIVO (%)N” value in test [2] (111 mg/kg) is “N.S”. Moreover, in test [5] (111 mg/kg), the “% Lowering dulcitol accumulation IN VIVO (%)D” value was “N.S”.

A word on the inhibition: it is the drop in the measured response relative to a control, in per cent.
